Measurements published in patent US7482427B2, “Positive modulator of bone morphogenic protein-2” (BioSurface Engineering Technologies, Inc., priority 2002, dated 2009).

Assays:
[1] = system: C3H10T½, MC3T3 cells or hFOB; assay: Cell migration across simulated wound margin, positive control (cell line not specified); assay type: cell-based; details: positive control reference, FGF-2 50 ng/mL, 6 hours (data not shown)
Protocol: Cell migration. For studies involving migration across a wound margin, the cells were grown in vitro and used when approximately 90% confluent. A simulated wound was made by scraping cells away from the cultureware surface. The cultures were rinsed to remove unbound cells, and then incubated in DMEM:F12 medium containing 2% newborn calf serum with or without peptide. FGF-2 (50 ng/mL) was used as a positive control reference material. The cells were allowed to migrate for 6 hours after which the cells were fixed in buffered formalin. Migration was monitored via phase contrast microscopy. Migrating cells were those that had migrated across the site of the simulated wound margin.
B2A2-K-NS was tested for its ability to induce cells of preosteoblast origin to migrate to a stimulated wound margin. Murine C3H10T½, MC3T3 cells or hFOB were grown to near confluency in vitro. A stimulated wound was made by scraping the cells away from the substrate. The cells were allowed to migrate for 6 hours after which migration was monitored via microscopy. Statistical significance was determined using ANOVA followed by post hoc testing using multiple comparison versus control group (Dunnett's Method). […] Table 3 summarizes the increase in migrating cells at the simulated wound margin induced by about 0.2 to 2.0 μg/mL B2A2-K-NS.

C2C12 cells = assay: Alkaline phosphatase (ALP) activity assay in C2C12 cells; assay type: cell-based, Mouse; details: for induction of ALP by growth factor in the presence of B2A2: B2A2 1000 ng/mL, FGF-2 50 ng/mL, VEGF 25 ng/mL, TGF-β1 50 pg/mL, 3 days
Protocol: Alkaline phosphatase (ALP) Activity Assay. C2C12 cells and C3H10T½ cells were cultured at 37° C. in a humidified atmosphere of 5% CO2 and 95% air, with DMEM/F12 medium supplemented with 10% serum, penicillin/streptomycin. […] At 4-5 days post induction, ALP activity was determined as described by Akiyama and colleagues (Akiyama et al. 1997, Exp Cell Res 235(2):362-9.) with modifications. Briefly, cells were washed once with phosphate-buffered saline (PBS) and lysed with 0.1% Triton×100 in 10 mM Tris HCl, pH 9.0. Protein concentration was determined using the BCA Protein Assay Kit (Pierce Biotechnology, Rockford, Ill.). Then ALP activity was measured by adding ALP buffer (1 M diethanolamine, 0.5 mM MgCl2, 1 mg/mL p-nitrophenylphosphate, pH 9.0), incubating in 37° C., and absorbance (405 nm) read at 15, 30 and 60 minutes using a microplate spectrophotometer (Molecular Devices, Sunnyvale, Calif.). The activity was expressed as O.D. per mg protein per hour.
B2A2 was tested to determine whether B2A2 enhanced the biological effects of CHO-produced rhBMP-2. […] Points represent means of quintuplicate determinations±SD.
B2A2 was tested in combination with other growth factors including FGF-2, VEGF, and tGF-β1 for induction of ALP in C2C12 cells. […] Mouse C2C12 cells were cultured as described for FIG. 1A, treated with a combination of various growth factors plus or minus B2A2, incubated for 3 days, and then assayed for ALP activity as described for FIG. 1A. […] Bars represent means of quintuplicate determinations±SD.
Mouse C2C12 cells were cultured as before and B2A2 (1000 ng/mL) was added to some wells. After a 45 minute incubation all wells were rinsed with fresh medium and the medium was replaced. […] After 5 days ALP activity was measured. […] Data is the means of triplicates±SD.
In FIG. 5A, a polystyrene surface of 96-well plates were first coated by silyl-heparin (open bars), followed by a 1 μg/mL solution of B2A2 (solid bars) in PBS for (1 hr at 37° C.) and rinsed in PBS and dried at room temperature. […] ALP activity was measured five days later. Data is the means of triplicates±SD.
In FIG. 5B, stainless steel wafers were first coated with silyl-heparin (open bars) followed by 100 μg/mL B2A2 in PBS as a second coating (solid bars) and rinsed in PBS and dried at room temperature. Wafers were coated separately in wells of a 24-well plate and transferred to a fresh untreated plate prior to cell seeding.
ALP activity was measured five days later. Data is the means of triplicates±SD.

[2] = system: BMPR and ActivinR isoforms; assay: Solid phase receptor binding assay, panel of receptor/Fc chimeras; details: insulin adsorbed to plates; Endostatin-Fc as unrelated chimeric protein
Protocol: Receptor binding assays. Binding to BMP receptors in a solid phase binding assay. B2A2 was absorded onto ELISA plates to saturation, soluble BMP receptor-immunoglobin Fc fusion proteins were added, and bound receptor was detected by HRP-conjugated anti-Fc antibody and colorimetric assay, values shown are background substracted. Specific binding of B2A2 to different receptor isoforms of the BMPR and Activin Receptor family were tested, employing the receptor-Fc chimeras shown. […] Bound receptor was displaced by the addition of rhBMP-2 at the levels indicated.
The compound of Example 2 was tested for specific binding to Bone Morphogenic Protein-2 receptors. Referring now to FIG. 12, results of solid phase receptor binding assays utilizing purified receptor/Fc chimeric molecules are illustrated. The chimeras are recombinant constructs of the soluble ectodomain of various receptor molecules (BMPR and ActivinR isoforms) fused to the carboxyl-terminal of the human IgG1 Fc region via a polypeptide liner. ELISA plates were coated with B2A2 or control compounds, soluble chimeric receptor/Fc antibody and quantified with a colorimeteric ELISA.

Row | Substance | induction of ALP by growth factor in the presence of B2A2 (C2C12 cells) | other results
1 | FGF-2: growth factor, positive control reference material for migration (50 ng/mL) | failed to induce ALP | migrating cells compared to controls [1]: significant increase in migrating cells
2 | Insulin | – | binding of negative controls [2]: did not bind
3 | TGF-B: growth factor purchased from Sigma Aldrich, tested in combination with B2A2 | failed to induce ALP | –
4 | VEGF | failed to induce ALP | –
5 | benzyl-tetra(dimethylsilylmethyl)oxycarbamoyl-heparin [silyl-heparin, reference compound] | – | ALP activity on coated polystyrene surface (C2C12 cells; silyl-heparin coating alone, BMP-2 50 ng/mL in solution, 5 days): potentiates BMP-2 activity
